We go through two molecules from patent publication US12173088B2, “Anti-microbial peptides” (priority 2018, dated 2024).

The subject of assay [1] is S. aureus USA300. The experiment in a line: microbe, parasite or virus in culture. Format: cell-based, Staphylococcus aureus. The following applies: Staphylococcus aureus, MRSA / USA300; Table 14; read-out: MIC S. aureus USA300 (MRSA). The procedure, abridged: (§1)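 Broth microdilution: log-phase cultures in tryptic soy broth diluted to OD600 0.001, exposed to two-fold diluted peptides at 37° C overnight, growth read at 630 nm. Medium effects on S. aureus USA300 tested with up to 200 mM NaCl, 2 mM CaCl2, 5-10% human serum, mouse plasma, fluids or tissue homogenate supernatants.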

In the next assay the test system is E. faecium V286-17 (VRE). Nature of the assay: microbe, parasite or virus in culture. Format: cell-based, Enterococcus faecium. The conditions noted are these: Enterococcus faecium, VRE, read-out: MIC E. faecium V286-17 (VRE). Put shortly: as §1
For the next assay, the system named is P. aeruginosa E411-17. Nature of the assay: microbe, parasite or virus in culture. Format: cell-based, Pseudomonas aeruginosa. The following applies: Pseudomonas aeruginosa, E41117; Table 14; read-out: MIC P. aeruginosa E411-17. The procedure, abridged: as §1
For a further assay, the system named is K. pneumoniae E406-17. Nature of the assay: microbe, parasite or virus in culture. Format: cell-based, Klebsiella pneumoniae. The conditions noted are these: Klebsiella pneumoniae, E40617; Table 14; read-out: MIC K. pneumoniae E406-17. Put shortly:
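Broth microdilution in tryptic soy broth: log-phase cultures (OD600 ≈0.5) diluted to OD600 0.001, given two-fold peptide dilutions, incubated overnight at 37° C. Growth read at 630 nm.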

The next assay concerns E. coli E423-17. Nature of the assay: microbe, parasite or virus in culture. Format: cell-based, Escherichia coli. The following applies: Escherichia coli, E42317; Table 14; read-out: MIC E. coli E423-17. The procedure, abridged:
as §1

A further assay relates to A. baumannii B26-16. Nature of the assay: microbe, parasite or virus in culture. The conditions noted are these: Acinetobacter baumannii, B2616; Table 14; read-out: MIC A. baumannii B26-16. Format: cell-based, Acinetobacter baumannii. Put shortly:
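Broth microdilution in tryptic soy broth: log-phase cultures diluted to 0.001 OD600 and exposed to peptide dilutions overnight at 37 °C, growth read at 630 nm. For S. aureus USA300, medium effects tested at pH 6.8, 7.2 and 8.0, with 150 mM NaCl, or with 5–10% human serum, mouse plasma or peritoneal fluid.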

The test system of assay [2] is K. pneumoniae E406-17 biofilms. Nature of the assay: Biofilm disruption and attachment. Format: cell-based, Klebsiella pneumoniae. As for the experimental part: Briefly, S. aureus USA300 and K. pneumoniae E406-17 (10^5 CFU/mL) were prepared from exponentially phase. Each well of the microtiter plate (Corning Costar® Cat No. 3595) was aliquoted with 180 μL of inoculum and the plates were incubated at 37° C. for 48 hours to form biofilm. Culture treated with water served as a positive control while media without bacterial inoculation served as the negative control. Media was aspirated post incubation and the attached biofilms were washed with 1×PBS to remove the planktonic bacteria. Each well was aliquoted with 20 μL of 10× peptide solution and 180 μL of fresh TSB media, plates were further incubated at 37° C. for 24 hours. Media aspirated from the wells and washed with 1×PBS to remove planktonic cells. Live cells in the biofilms were quantitated using XTT [2,3-bis(2-methyloxy-4-nitro-5-sulfophenyl)-2H-tertazolium-5-carboxanilide] assay by following the manufacturer's instructions with modifications. 180 μL of fresh TSB and 20 μL of XTT solution was added to each well and the plates further incubated at 37° C. for 2 hours. Absorbance was read at 450 nm (only media with XTT containing wells served as the blank) using a Chromate® microtiter plate reader. Percentage biofilm growth for the peptide was plotted by assuming 100% biofilm growth in bacterial control alone. The data is mean±SD, the significance at […]. […]

In the next assay the test system is S. aureus M838-17 (MRSA). Nature of the assay: microbe, parasite or virus in culture. Format: cell-based, Staphylococcus aureus. The following applies: Staphylococcus aureus, MRSA; Table 7; by weight; read-out: MIC S. aureus M838-17 (MRSA). Put shortly:
as §1

Assay [3] deals with clinical strains of methicillin-resistant and susceptible S. aureus. The experiment in a line: microbe, parasite or virus in culture. The following applies: for MIC: Staphylococcus aureus. On the procedure:
The antibacterial activity of peptides was evaluated using a standard broth microdilution protocol with minor modifications (Mishra, et al. (2017) Acta Biomater., 49:316-328). In brief, logarithmic phase bacterial cultures (i.e., optical density at 600 nm≈0.5) were diluted to 0.001 OD and aliquoted 90 μL per well into a 96-well polystyrene microplate. Added 10 μL peptides per well with various concentrations, plates were incubated at 37° C., overnight. Post incubation the plates are read at 630 nm using a ChroMate® Microplate Reader (GMI). […] To study the influence of medium conditions on the antimicrobial activity of peptides against S. aureus USA300 at different pHs (6.8, 7.2, and 8.0), 150 mM sodium chloride (NaCl), 5-10% of human serum, mouse plasma, and peritoneal fluid were included into the assays.

The test system of assay [4] is S. aureus USA300. Format: cell-based, Staphylococcus aureus. As for the experimental part: The experiment was carried out similar to the MIC determination with a few modifications (Ge, et al. (1999) Antimicrob. Agents Chemother., 43:782-788; Ling, et al. (2015) Nature 520:388). In short, an exponential phase S. aureus USA300 culture (i.e., optical density at 600 nm≈0.5) was diluted and partitioned into a 96-well polystyrene microplate with ˜10^5 colony forming units (CFU) per well (90 μL aliquots). After treatment with 10 μL of peptide or antibiotics solutions at various concentrations, microplates were incubated at 37° C. overnight and read on a ChroMate® 4300 Microplate Reader at 630 nm (GMI). […] Plots were made to determine the increase in the fold change (MIC on given passage/MIC recorded in first day of passage).
This experiment was performed similar to the MIC determination with a few modifications. […] After treatment with 10 μL of peptide or antibiotics solutions at various concentrations, microplates were incubated at 37° C. overnight and read on a ChroMate® Microplate Reader at 630 nm (GMI). […] The increase in the fold change (MIC on given passage/MIC recorded in first day of passage) used to determine the degree of drug resistance.

The test system of assay [5] is S. aureus USA300 biofilms. The conditions noted are these: 48-hour biofilms.
Protocol: The antibiofilm activity of the peptide against 24 hours established biofilms was evaluated. In short, S. aureus USA300 (10^5 CFU/mL) was made from exponential phase bacteria in TSB media and 200 μL was distributed to each well of the microtiter plate (Corning Costar Cat No. 3595). The plates were incubated at 37° C. for 24 hours to form biofilm. Culture treated with water served as a positive control while media without bacterial inoculation served as the negative control. Media was then pipetted out and the attached biofilms were washed with 1×PBS to remove the planktonic bacteria. Each well of the plate was then filled with 20 μL of 10× peptide solution and 180 μL of fresh TSB media and the plates were further incubated at 37° C. for 24 hours. Media was then pipetted out and the wells were washed with 1×PBS to remove planktonic cells. Live cells in the biofilms were then quantitated using XTT [2,3-bis(2-methyloxy-4-nitro-5-sulfophenyl)-2H-tertazolium-5-carboxanilide] assay by following the manufacturer's instructions with modifications. 180 μL of fresh TSB and 20 μL of XTT solution was added to each well and the plates were again incubated at 37° C. for 2 hours. Absorbance at 450 nm (only media with XTT containing wells served as the blank) was obtained using a ChroMate® microtiter plate reader. […]

≈ marks a conversion by molar mass, not a printed value. Where two headings read alike, the source gives them in different places. Bounds are passed on as bounds.

On to `C[C@@H](O)[C@H]1C(=O)N2C(C(=O)O)=C(S[C@@H]3CN[C@H](CNS(N)(=O)=O)C3)[C@H](C)[C@H]12` [Doripenem, reference compound], for which the MIC with S. aureus USA300 [1] was 0.25 µM (≈ 0.105 µg/mL); in the assay with E. faecium V286-17 (VRE) (Table 14), > 8 µM; in the assay on P. aeruginosa E411-17, 2 µM (≈ 0.841 µg/mL); in the assay on K. pneumoniae E406-17, 0.5 µM (≈ 0.21 µg/mL); in the assay on E. coli E423-17 it was 1 µM (≈ 0.421 µg/mL); in the assay with A. baumannii B26-16, > 8 µM. The “Adhesion/attachment of K. pneumoniae” value in [2] is “showed no effect”. Also, in assay [2] (48-hour biofilms), the “Effect on 48-hour preformed biofilms” value is given as “showed no effect”.
Consider `CCOc1ccc2ccccc2c1C(=O)N[C@@H]1C(=O)N2[C@@H]1SC(C)(C)[C@@H]2C(=O)O` [Nafcillin], for which the MIC in the assay with S. aureus M838-17 (MRSA) is 0.78 to 1.56 µM (≈ 0.323 to 0.647 µg/mL); in the assay on E. faecium V286-17 (VRE) (Table 7), > 12.5 µM; in [3] (MSSA, strain B243-16 MSSA) it was < 0.25 µM; in [3] (MSSA, strain B254-16 MSSA), < 0.25 µM; in assay [3] (MSSA, strain B255-16 MSSA) it was < 0.25 µM; in [3] (MSSA, strain B262-16 MSSA), 0.5 µM (≈ 0.207 µg/mL). Moreover, the MIC was 0.5 µM (≈ 0.207 µg/mL) in assay [3] (MSSA, strain B269-16 MSSA); 0.25 µM (≈ 0.104 µg/mL) in [3] (NEWMAN, strain Newman); > 8 µM in assay [3] (USA200, strain USA200); 0.5 µM (≈ 0.207 µg/mL) in assay [3] (USA300, strain USA300); 1 µM (≈ 0.414 µg/mL) in [3] (USA400, strain USA400); 2 µM (≈ 0.829 µg/mL) in assay [3] (strain M106-16). Moreover, the MIC was found to be 1 µM (≈ 0.414 µg/mL) in assay [3] (strain M108-16); 1 µM (≈ 0.414 µg/mL) in assay [3] (strain M109-16); 8 µM (≈ 3.32 µg/mL) in assay [3] (strain M111-16); 0.5 µM (≈ 0.207 µg/mL) in assay [3] (strain M112-16); 0.5 µM (≈ 0.207 µg/mL) in [3] (strain M113-16); 0.5 µM (≈ 0.207 µg/mL) in assay [3] (strain M114-16). Also, the MIC in assay [3] (strain M116-16) was < 0.25 µM; in assay [3] (strain M117-16), 0.5 µM (≈ 0.207 µg/mL); in assay [3] (strain M118-16) it was 0.5 µM (≈ 0.207 µg/mL); in assay [3] (strain M119-16), 1 µM (≈ 0.414 µg/mL); in assay [3] (strain M120-16), 2 µM (≈ 0.829 µg/mL); in assay [3] (strain M121-16), 1 µM (≈ 0.414 µg/mL). Besides, the MIC was 1 µM (≈ 0.414 µg/mL) in assay [3] (strain M122-16); 4 µM (≈ 1.66 µg/mL) in assay [3] (strain M123-16); 1 µM (≈ 0.414 µg/mL) in assay [3] (strain M126-16); 2 µM (≈ 0.829 µg/mL) in assay [3] (strain M127-16); 8 µM (≈ 3.32 µg/mL) in [3] (strain M128-16); 1 µM (≈ 0.414 µg/mL) in assay [3] (strain M129-16). Also, the figures for the MIC in [3] (strain M130-16), in [3] (strain UAMS-1) and in assay [3] (strain mu50) were 1 µM (≈ 0.414 µg/mL), 4 µM (≈ 1.66 µg/mL) and > 8 µM, respectively. Further, the “Inhibition of Mu50 and USA200 strains” value in assay [3] (nafcillin at 8 μM) is given as “did not inhibit”. The same molecule came in with an MIC increase against S. aureus USA300 [4] (after 16 passages, sub-MIC level) of 1000 fold. In addition, the “Resistance development” value in the assay with S. aureus USA300 [4] (multiple passage experiment) was “developed resistance”. Moreover, the “Activity against 48-hour biofilms” value in assay [5] is recorded as “did not”.
